This passage reports EC50 results from patent US9034336B2, “Immunomodulators and immunomodulator conjugates” (Regents of the University of Minnesota, priority 2011, dated 2015).

Each structure is given as a SMILES string.

As a reminder, the EC50 is the concentration giving half of the maximal effect.

The target of this assay is T1, human TLR8 (Homo sapiens, UniProt Q9NR97).
T1 construct: host or cells: HEK (HEK293) cells with NF-kB-responsive SEAP reporter
T1 sequence (Q9NR97 27-1041): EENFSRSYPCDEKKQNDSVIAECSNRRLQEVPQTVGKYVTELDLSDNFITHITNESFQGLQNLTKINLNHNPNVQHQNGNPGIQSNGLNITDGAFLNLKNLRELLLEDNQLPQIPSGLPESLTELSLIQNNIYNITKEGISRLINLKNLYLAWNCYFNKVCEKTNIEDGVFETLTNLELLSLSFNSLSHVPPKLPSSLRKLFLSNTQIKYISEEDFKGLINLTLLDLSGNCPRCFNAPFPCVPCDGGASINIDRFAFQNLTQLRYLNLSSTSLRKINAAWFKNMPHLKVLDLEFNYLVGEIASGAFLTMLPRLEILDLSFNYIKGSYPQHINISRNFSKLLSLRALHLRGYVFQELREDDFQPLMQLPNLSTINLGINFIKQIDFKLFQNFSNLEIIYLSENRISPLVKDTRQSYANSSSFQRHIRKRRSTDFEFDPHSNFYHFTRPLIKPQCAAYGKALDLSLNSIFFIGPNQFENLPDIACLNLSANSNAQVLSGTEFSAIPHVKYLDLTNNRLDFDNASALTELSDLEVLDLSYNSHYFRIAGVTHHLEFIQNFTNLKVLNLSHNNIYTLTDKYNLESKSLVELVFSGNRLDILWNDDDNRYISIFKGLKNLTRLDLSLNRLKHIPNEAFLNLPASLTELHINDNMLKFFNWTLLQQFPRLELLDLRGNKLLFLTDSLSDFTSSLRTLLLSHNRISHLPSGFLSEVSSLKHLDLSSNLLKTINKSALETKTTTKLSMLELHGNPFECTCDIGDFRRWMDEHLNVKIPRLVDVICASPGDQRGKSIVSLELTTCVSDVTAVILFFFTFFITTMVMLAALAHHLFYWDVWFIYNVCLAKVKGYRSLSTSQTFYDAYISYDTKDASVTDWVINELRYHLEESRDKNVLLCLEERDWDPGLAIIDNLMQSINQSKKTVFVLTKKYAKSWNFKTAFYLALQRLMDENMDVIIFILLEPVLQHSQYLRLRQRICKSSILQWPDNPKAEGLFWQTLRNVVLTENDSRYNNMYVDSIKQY
As to the kind of experiment: TLR7/8-NF-κB reporter assay (HEK-TLR8, SEAP). The format is cell-based. To be noted: HEK-TLR8 cells, 24 hrs, read-out: EC50 of TLR8 (mean ± SD). How it is done:
Human embryonic kidney (HEK) cells that were stably transfected with human TLR7 or TLR8 and an NF-κB—responsive secreted embryonic alkaline phosphatase (SEAP) gene (HEK-TLR7/8) were purchased from InvivoGen (San Diego, Calif.). The procedure used to measure TLR7 or TLR8 agonist activity was conducted as described by Hood et al. (Hood J. D, et al., Human Vaccines, 2010, 6, 4, 322-335). Briefly, HEK-TLR7/8 cells were stimulated with 3.3 or 30 μM of compound in a 96-well plate in DMEM containing 10% FBS and 0.01% Normocin (InvivoGen) for 24 hrs. Twenty microliters of the supernatant from each well was incubated with Quanti-blue substrate solution (InvivoGen) at 37° C. for 1 hour and absorbance was read at 650 nm using a Synergy plate reader (Biotek, Winooski, Vt.).
Background: Reporter assays use an easily measured gene product as a stand-in for the process of interest.

With `CCCCc1nc2c(N)nc3cc(C(=O)OC)ccc3c2n1CC(C)(C)O` [Compound 420, 4-Amino-2-butyl-1-(2-hydroxy-2-methylpropyl)-7-methoxycarbonyl-1H-imidazo[4,5-c]quinoline], the EC50 worked out at 49.6 ± 1.02 µM.
